# Where two headings read alike, the source gives them in different places.
# Columns and labels:
# [1] = target: T1, Ba/F3-FGFR3-transfected cells (Homo sapiens, UniProt P22607, cells depend on it, form not given); assay: Ba/F3-FGFR3 (minus IL3 or plus IL3) cellular proliferation assay; format: cell-based; conditions: 24 hours, Alamar Blue
# T1 construct: BAF3-FGFR3 (MIN IL3 pIC50); other: minus IL3; 24 hours, Alamar Blue
# Protocol: Ba/F3-FGFR3 (Minus IL3 or Plus IL3) (Cellular Proliferation Assay)
# (§1) In a 384 well plate, 100 nl of compound dilution in DMSO was sprayed before adding 50 μl cell culture medium (phenol red free RPMI-1640, 10% FBS, 2 mM L-Glutamine and 50 μg/ml Gentamycin) containing 20000 cells per well of Ba/F3-FGFR3-transfected cells. Cells were put in an incubator at 37° C. and 5% CO2. After 24 hours, 10 μl of Alamar Blue solution (0.5 mM K3Fe(CN)6, 0.5 mM K4Fe(CN)6, 0.15 mM Resazurin and 100 mM Phosphate Buffer) was added to the wells, incubated for 4 hours at 37° C. and 5% CO2 before RFU's (Relative Fluorescence Units) (ex. 540 nm., em. 590 nm.) were measured in a fluorescence plate reader.
# (§2) In this assay, the inhibitory effect of different compound concentrations (range 10 μM to 0.1 nM) was determined and used to calculate an IC50 (M) and pIC50 (−log IC50) value. As a counterscreen the same experiment was performed in the presence of 10 ng/ml murine IL3.
# FGFR1 (h) = FGFR1 (h) (Homo sapiens, UniProt P11362); assay: FGFR1 (enzymatic assay), TR-FRET; format: biochemical
# Sequence of FGFR1 (h) (P11362 22-822): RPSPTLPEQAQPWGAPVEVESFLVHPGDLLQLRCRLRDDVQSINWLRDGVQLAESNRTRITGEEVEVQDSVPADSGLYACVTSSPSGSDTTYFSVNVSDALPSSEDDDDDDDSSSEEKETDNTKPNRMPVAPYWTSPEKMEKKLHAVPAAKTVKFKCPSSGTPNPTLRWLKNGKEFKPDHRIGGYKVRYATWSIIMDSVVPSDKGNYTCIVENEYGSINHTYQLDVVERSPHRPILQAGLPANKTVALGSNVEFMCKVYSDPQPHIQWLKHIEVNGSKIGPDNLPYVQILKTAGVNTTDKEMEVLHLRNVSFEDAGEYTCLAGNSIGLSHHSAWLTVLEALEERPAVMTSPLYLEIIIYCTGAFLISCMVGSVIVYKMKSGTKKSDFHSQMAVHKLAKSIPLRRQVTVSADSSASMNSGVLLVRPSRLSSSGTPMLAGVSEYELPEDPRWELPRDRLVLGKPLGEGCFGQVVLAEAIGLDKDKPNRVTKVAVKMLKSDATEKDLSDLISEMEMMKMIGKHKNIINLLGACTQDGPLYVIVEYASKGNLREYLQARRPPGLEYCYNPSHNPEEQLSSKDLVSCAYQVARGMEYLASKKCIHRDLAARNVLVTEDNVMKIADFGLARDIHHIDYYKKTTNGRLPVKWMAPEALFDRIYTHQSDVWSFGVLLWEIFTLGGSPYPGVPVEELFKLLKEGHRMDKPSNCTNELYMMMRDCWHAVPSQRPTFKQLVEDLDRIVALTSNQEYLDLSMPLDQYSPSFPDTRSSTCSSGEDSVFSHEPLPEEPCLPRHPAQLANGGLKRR
# [2] = target: T2, Ba/F3-FGFR1-transfected cells (Homo sapiens, UniProt P11362); assay: Ba/F3-FGFR1 (minus IL3 or plus IL3) cellular proliferation assay; format: cell-based; conditions: 24 hours, Alamar Blue
# T2 construct: other: minus IL3; 24 hours, Alamar Blue
# T2 sequence (P11362 whole entry, change not shown): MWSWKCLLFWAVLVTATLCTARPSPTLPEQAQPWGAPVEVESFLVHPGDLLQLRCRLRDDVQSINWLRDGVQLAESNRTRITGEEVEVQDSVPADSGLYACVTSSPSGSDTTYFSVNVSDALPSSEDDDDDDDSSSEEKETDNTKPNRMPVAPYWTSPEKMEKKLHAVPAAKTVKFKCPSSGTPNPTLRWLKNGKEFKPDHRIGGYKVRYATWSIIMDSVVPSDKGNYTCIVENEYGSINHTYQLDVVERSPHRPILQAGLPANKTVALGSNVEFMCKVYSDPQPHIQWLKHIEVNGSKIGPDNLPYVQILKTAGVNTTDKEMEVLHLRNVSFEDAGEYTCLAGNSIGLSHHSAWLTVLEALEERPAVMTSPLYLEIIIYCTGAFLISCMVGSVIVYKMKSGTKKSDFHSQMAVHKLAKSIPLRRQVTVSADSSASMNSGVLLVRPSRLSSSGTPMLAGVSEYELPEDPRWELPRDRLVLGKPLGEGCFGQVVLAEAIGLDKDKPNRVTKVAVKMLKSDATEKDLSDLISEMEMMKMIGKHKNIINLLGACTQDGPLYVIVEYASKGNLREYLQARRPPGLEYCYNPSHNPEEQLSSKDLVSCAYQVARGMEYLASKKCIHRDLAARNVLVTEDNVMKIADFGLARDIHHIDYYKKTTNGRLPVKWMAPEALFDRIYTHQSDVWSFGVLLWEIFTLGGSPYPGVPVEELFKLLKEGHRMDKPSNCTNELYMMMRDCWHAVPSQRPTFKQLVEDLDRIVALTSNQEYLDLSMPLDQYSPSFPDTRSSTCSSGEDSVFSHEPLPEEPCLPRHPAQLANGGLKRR
# Protocol: Ba/F3-FGFR1 (Minus IL3 or Plus IL3) (Cellular Proliferation Assay)
# as §1, with “Ba/F3-FGFR1-transfected” for “Ba/F3-FGFR3-transfected”
# as §2
# FGFR1 = target: T3, FGFR1 (Homo sapiens, UniProt P11362); assay: Enzyme binding assay (KINOMEscan) FGFR1; conditions: FGFR1_pKd, pKd = -log Kd (M)
# T3 construct: purchased DiscoveRx Corporation
# T3 sequence (P11362 22-822): as the sequence (P11362 22-822) above
# Protocol: (§3) Enzyme Binding Assays (KINOMEscan®)
# (§4) Kinase enzyme binding affinities of compounds disclosed herein were determined using the KINOMEscan® technology performed by DiscoveRx Corporation, San Diego, Calif., USA (www.kinomescan.com).
# FGFR4 = target: T4, FGFR4 (Homo sapiens, UniProt P22455); assay: Enzyme binding assay (KINOMEscan) FGFR4; conditions: pKd = -log Kd (M), read-out: FGFR4_pKd (converted)
# T4 construct: purchased DiscoveRx Corporation
# T4 sequence (P22455 22-802): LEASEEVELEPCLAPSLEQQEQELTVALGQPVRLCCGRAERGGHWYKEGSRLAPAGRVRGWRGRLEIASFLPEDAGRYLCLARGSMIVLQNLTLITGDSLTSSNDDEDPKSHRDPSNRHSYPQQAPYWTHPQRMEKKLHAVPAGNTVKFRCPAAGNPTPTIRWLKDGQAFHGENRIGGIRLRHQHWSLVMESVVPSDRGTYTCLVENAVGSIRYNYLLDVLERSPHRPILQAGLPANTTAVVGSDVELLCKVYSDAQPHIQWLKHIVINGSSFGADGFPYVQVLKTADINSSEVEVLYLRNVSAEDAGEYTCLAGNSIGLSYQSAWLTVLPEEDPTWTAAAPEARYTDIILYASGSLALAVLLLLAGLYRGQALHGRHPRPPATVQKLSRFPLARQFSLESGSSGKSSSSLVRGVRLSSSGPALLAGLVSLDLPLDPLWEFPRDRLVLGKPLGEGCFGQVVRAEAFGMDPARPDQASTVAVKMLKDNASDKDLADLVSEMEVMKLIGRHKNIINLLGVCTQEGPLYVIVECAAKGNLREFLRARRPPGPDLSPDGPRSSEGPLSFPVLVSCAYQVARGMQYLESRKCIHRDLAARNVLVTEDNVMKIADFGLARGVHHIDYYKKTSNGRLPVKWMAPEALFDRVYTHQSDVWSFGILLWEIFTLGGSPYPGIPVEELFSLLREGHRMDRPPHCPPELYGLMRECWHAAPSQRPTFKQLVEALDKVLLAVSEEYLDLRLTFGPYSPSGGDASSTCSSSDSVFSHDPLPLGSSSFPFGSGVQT
# Protocol: as §3, §4
# [3] = target: Ba/F3-FGFR4-transfected cells (Homo sapiens, UniProt P22455, cells depend on it, form not given); assay: Ba/F3-FGFR4 cellular proliferation assay; format: cell-based; conditions: 24 hours, Alamar Blue
# Protocol: Ba/F3-FGFR4 (Cellular Proliferation Assay)
# as §1, with “Ba/F3-FGFR4-transfected” for “Ba/F3-FGFR3-transfected”
# In this assay, the inhibitory effect of different compound concentrations (range 10 μM to 0.1 nM) was determined and used to calculate an IC50 (M) and pIC50 (−log IC50) value.
# FGFR2 = target: T5, FGFR2 (Homo sapiens, UniProt P21802); assay: Enzyme binding assay (KINOMEscan) FGFR2; conditions: pKd = -log Kd (M), read-out: FGFR2_pKd (converted)
# T5 construct: purchased DiscoveRx Corporation
# Protocol: as §3, §4
# [4] = target: T6, Ba/F3-KDR-transfected cells (Homo sapiens, UniProt P35968, cells depend on it, form not given); assay: Ba/F3-KDR (minus IL3 or plus IL3) cellular proliferation assay; format: cell-based; conditions: 24 hours, Alamar Blue
# T6 construct: BAF3-KDR (MIN IL3 pIC50); other: minus IL3; 24 hours, Alamar Blue
# T6 sequence (P35968 whole entry, looked up, change not shown): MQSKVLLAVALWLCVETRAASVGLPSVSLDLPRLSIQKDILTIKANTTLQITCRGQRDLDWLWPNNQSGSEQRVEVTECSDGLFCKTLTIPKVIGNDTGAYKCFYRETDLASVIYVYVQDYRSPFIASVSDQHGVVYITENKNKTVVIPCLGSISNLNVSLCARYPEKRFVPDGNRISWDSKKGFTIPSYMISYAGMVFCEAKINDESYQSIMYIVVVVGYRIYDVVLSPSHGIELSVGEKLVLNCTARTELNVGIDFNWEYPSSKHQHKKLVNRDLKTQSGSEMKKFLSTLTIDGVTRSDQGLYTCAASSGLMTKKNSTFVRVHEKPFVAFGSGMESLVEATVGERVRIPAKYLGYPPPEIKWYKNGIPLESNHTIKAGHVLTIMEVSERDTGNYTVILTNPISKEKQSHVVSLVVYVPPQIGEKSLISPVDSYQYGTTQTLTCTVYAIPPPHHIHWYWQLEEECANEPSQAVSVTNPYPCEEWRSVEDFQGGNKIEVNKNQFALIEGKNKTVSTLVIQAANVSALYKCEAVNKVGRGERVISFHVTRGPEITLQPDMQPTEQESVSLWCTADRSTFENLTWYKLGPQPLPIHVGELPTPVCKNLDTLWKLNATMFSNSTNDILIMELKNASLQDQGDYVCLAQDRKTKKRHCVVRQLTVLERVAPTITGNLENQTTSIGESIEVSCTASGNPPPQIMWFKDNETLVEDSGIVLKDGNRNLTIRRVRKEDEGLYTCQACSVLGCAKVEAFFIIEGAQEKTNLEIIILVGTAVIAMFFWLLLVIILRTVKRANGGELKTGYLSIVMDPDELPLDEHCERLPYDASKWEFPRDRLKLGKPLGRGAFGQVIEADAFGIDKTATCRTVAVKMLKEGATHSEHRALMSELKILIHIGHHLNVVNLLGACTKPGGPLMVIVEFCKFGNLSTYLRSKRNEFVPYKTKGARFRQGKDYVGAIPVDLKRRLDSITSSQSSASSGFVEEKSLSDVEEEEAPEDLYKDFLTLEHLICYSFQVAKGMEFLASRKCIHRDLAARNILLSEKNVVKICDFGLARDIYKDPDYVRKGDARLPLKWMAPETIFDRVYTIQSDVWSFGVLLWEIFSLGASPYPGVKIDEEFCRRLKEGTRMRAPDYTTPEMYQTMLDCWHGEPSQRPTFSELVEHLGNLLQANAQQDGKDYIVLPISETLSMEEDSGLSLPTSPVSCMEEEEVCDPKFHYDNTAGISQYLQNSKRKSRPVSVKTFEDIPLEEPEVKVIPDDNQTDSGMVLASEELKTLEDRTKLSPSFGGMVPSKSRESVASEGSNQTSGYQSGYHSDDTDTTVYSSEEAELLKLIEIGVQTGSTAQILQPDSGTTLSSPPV
# Protocol: Ba/F3-KDR (Minus IL3 or Plus IL3) (Cellular Proliferation Assay)
# as §1, with “Ba/F3-KDR-transfected” for “Ba/F3-FGFR3-transfected”
# as §2
# FGFR4 (h) = FGFR4 (h) (Homo sapiens, UniProt P22455); assay: FGFR4 (enzymatic assay), TR-FRET; format: biochemical; conditions: 5 μM ATP; pIC50 = -log IC50 (M); read-out: FGFR 4 pIC50 (converted)
# Sequence of FGFR4 (h) (P22455 22-802): as the sequence (P22455 22-802) above
# VEGFR2 = target: T7, VEGFR2 (Homo sapiens, UniProt P35968); assay: Enzyme binding assay (KINOMEscan) VEGFR2; conditions: pKd = -log Kd (M), read-out: VEGFR2_pKd (converted)
# T7 construct: purchased DiscoveRx Corporation
# Protocol: as §3, §4
# FGFR2 (h) = FGFR2 (h) (Homo sapiens, UniProt P21802); assay: FGFR2 (enzymatic assay), TR-FRET; format: biochemical
# FGFR3 (h) = FGFR3 (h) (Homo sapiens, UniProt P22607); assay: FGFR3 (enzymatic assay), TR-FRET; format: biochemical; conditions: 25 μM ATP; pIC50 = -log IC50 (M); read-out: FGFR3 pIC50 (converted)
# FGFR3 = target: T8, FGFR3 (Homo sapiens, UniProt P22607); assay: Enzyme binding assay (KINOMEscan) FGFR3; conditions: pKd = -log Kd (M), read-out: FGFR3_pKd (converted)
# T8 construct: purchased DiscoveRx Corporation
# Protocol: as §3, §4
# KDR (h) = KDR (h) (Homo sapiens, UniProt P35968); assay: KDR (VEGFR2) (enzymatic assay), TR-FRET; format: biochemical; conditions: 3 μM ATP; pIC50 = -log IC50 (M); read-out: VEGFR KDR pIC50 (converted)
# Protocol: KDR (VEGFR2) (Enzymatic Assay)
# In a final reaction volume of 30 μL, KDR (h) (150 ng/ml) was incubated with 50 mM HEPES pH 7.5, 6 mM MnCl2, 1 mM DTT, 0.1 mM Na3VO4, 0.01% Triton-X-100, 500 nM Btn-Flt3 and 3 μM ATP in the presence of compound (1% DMSO final). After incubation for 120 minutes at room temperature the reaction was stopped with 2.27 nM EU-anti P-Tyr, 7 mM EDTA, 31.25 nM SA-XL-665 and 0.02% BSA which was present for 60 minutes at room temperature. Time-Resolved Fluorescence Resonance Energy Transfer (TR-FRET) signal (ex340 nm. Em 620 nm, em 655 nm) was measured afterwards and results are expressed in RFU (Relative Fluorescence Units). In this assay, the inhibitory effect of different compound concentrations (range 10 μM to 0.1 nM) was determined and used to calculate an IC50 (M) and pIC50 (−log IC50) value.
# [5] = 0.4 μM ATP, pIC50 = -log IC50 (M), read-out: FGFR 2 pIC50 (converted)
# T1 sequence (P22607 whole entry, looked up, change not shown): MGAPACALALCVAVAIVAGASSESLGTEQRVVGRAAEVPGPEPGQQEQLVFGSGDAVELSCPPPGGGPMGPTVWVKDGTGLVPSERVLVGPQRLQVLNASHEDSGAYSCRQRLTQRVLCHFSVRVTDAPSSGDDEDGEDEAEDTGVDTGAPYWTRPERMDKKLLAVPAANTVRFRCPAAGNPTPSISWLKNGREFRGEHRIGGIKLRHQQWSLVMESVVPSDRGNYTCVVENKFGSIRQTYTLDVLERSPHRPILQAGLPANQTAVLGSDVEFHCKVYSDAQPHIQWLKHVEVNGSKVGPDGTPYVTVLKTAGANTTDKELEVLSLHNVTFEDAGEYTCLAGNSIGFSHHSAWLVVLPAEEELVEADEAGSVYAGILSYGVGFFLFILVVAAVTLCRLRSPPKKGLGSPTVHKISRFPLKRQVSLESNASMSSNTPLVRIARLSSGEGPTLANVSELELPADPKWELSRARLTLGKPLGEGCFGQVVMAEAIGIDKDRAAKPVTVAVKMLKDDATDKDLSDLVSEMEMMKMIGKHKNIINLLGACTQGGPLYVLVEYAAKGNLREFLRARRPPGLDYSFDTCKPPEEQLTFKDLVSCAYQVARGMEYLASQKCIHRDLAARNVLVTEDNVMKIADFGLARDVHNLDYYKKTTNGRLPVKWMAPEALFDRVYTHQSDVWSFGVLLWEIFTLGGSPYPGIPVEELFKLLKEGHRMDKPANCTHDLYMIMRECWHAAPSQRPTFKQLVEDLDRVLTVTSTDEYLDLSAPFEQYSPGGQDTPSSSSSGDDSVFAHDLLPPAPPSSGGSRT
SMILES,BAF3-FGFR3 (MIN IL3 pIC50) [1],IC50 (FGFR1 (h)),BAF3-FGFR1 (MIN IL3 pIC50) [2],Kd (FGFR1),Kd (FGFR4),BAF3-FGFR4 (pIC50) [3],Kd (FGFR2),BAF3-KDR (MIN IL3 pIC50) [4],IC50 (FGFR4 (h)),Kd (VEGFR2),IC50 (FGFR2 (h); [5]),melting point,IC50 (FGFR3 (h)),Kd (FGFR3),IC50 (KDR (h)),IC50 (FGFR2 (h))
COc1cc(OC)cc(N(CCO)c2ccc3ncn(-c4ccccc4)c(=O)c3c2)c1 [Compound 7],<5,631 nM,<5,> 1e-06 M,> 1e-06 M,<5,> 1e-06 M,<5,3.98e-06 M,> 1e-06 M,3.98e-07 M,171 °C,3.16e-07 M,> 1e-06 M,> 1e-06 M,
COc1cc(OC)cc(N(CCNC(C)C)c2ccc3ncn(-c4cnn(C)c4)c(=O)c3c2)c1 [Compound 9],~7.09,5.01 nM,7.2,,,6.2,,5.2,5.01e-08 M,,6.31e-09 M,142 °C,1e-08 M,,5.01e-07 M,
COc1cc(OC)c(Cl)c(N(CCO)c2ccc3ncn(-c4cnn(C)c4)c(=O)c3c2)c1Cl [Compound 10],6.3,12.6 nM,6.2,,,5.1,,~5,2e-07 M,,1.58e-08 M,223 °C,7.94e-09 M,,5.01e-07 M,
COc1cc(OC)c(Cl)c(N(CCNC(C)C)c2ccc3ncn(-c4cnn(C)c4)c(=O)c3c2)c1Cl [Compound 11],7.3,12.6 nM,7.4,,,6.3,,5.4,1.58e-07 M,,6.31e-08 M,195 °C,3.98e-08 M,,5.01e-07 M,
COc1cc(OC)c(F)c(N(Cc2ncc[nH]2)c2ccc3ncn(-c4cnn(C)c4)c(=O)c3c2)c1 [Compound 15],~7.15,5.01 nM,6.7,,,5.8,,<5,7.94e-09 M,,,212 °C,2.51e-09 M,,3.98e-07 M,5.01e-09 M
